{"source": "patent US10011629B2", "about": "“Nucleoside analogs for treatment of the flaviviridae family of viruses and cancer” (Cocrystal Pharma, Inc., priority 2015, dated 2018)", "key": {"[1]": {"target": "HCV NS5B RNA polymerase GT 3a WT", "assay": "NS5B enzyme assay, GT 3a WT", "assay_type": "biochemical", "settings": "NS5B enzyme GT 3a WT; average of two to three replicates ± SD", "experimental": "The 21-amino-acid C-terminal truncated HCV NS5B RNA polymerase can be cloned from the HCV replicon cells, modified with a six-His-terminal tail, expressed in a prokaryotic expression vector (pQE60; Qiagen), and subsequently purified over a Talon cobalt affinity resin column (Clontech, Palo Alto, Calif.).^1 Purification can be monitored by SDS-PAGE and Western blotting. The resulting purified protein can be dialyzed overnight against 50 mM sodium phosphate (pH 8.0)-300 mM sodium chloride-0.5% Triton X-100-50% glycerol-2 mM dithiothreitol. The dialysate maintains consistent activity for more than 6 months when stored at −20° C. Protein can be quantified with the Coomassie Plus protein assay reagent (Pierce) by using a bovine serum albumin standard from the same supplier.\nNS5B RNA polymerase reaction can be studied by monitoring the incorporation of ^32P-labeled UMP into the newly synthesized RNA strand by using minus IRES as the template. […] After the membrane is rinsed with water followed by rinsing with ethanol, the dots can be cut out and the radioactivity counted in a Packard liquid scintillation counter. The amount of product can be calculated on the basis of the total radioactivity in the reaction mixture. The rate of the reaction can be determined from the slope of the time course of product formation. […]"}, "[2]": {"assay": "Cytotoxicity in HCV replicon assay (ΔCt rRNA)", "assay_type": "cell-based", "settings": "human", "experimental": "(§1) Huh 7 Clone B cells containing HCV Replicon RNA were seeded in a 96-well plate at 5000 cells/well, and the compounds tested at 10 μM in triplicate immediately after seeding. Following five days incubation (37° C., 5% CO2), total cellular RNA was isolated by using versaGene RNA purification kit from Gentra. Replicon RNA and an internal control (TaqMan rRNA control reagents, Applied Biosystems) were amplified in a single step multiplex Real Time RT-PCR Assay. The antiviral effectiveness of the compounds was calculated by subtracting the threshold RT-PCR cycle of the test compound from the threshold RT-PCR cycle of the no-drug control (ΔCt HCV). A ΔCt of 3.3 equals a 1-log reduction (equal to 90% less starting material) in Replicon RNA levels. The cytotoxicity of the compounds was also calculated by using the ΔCt rRNA values. 2′-C-Me-C was used as the positive control. To determine EC90 and IC50 values^2, ΔCt: values were first converted into fraction of starting material^3 and then were used to calculate the % inhibition."}, "[3]": {"tested_on": "HCV 1b (Huh 7 Clone B cells containing HCV Replicon RNA)", "assay": "HCV replicon assay", "assay_type": "cell-based", "settings": "Hepatitis C virus, Huh-7, read-out: EC90 (μM or letter value) or % inhib HCV", "experimental": "as §1, with “inhibition. […]” for “inhibition.”"}, "[4]": {"tested_on": "nuclear DNA (ß-actin or rRNA gene) in HepG2 cells", "assay": "Nuclear DNA level in HepG2 cells (real-time PCR)", "assay_type": "cell-based, human", "settings": "Homo sapiens, 336 h, HepG2 cells, 14-day assay", "experimental": "(§2) This assay was used in all studies described in this application that determine the effect of compounds on mitochondrial DNA content. In this assay, low-passage-number HepG2 cells were seeded at 5,000 cells/well in collagen-coated 96-well plates. Test compounds were added to the medium to obtain final concentrations of 0 μM, 0.1 μM, 10 μM and 100 μM. […] The mitochondrial cytochrome c oxidase subunit II (COXII) gene and the ß-actin or rRNA gene were amplified from 5 μl of the eluted nucleic acids using a multiplex Q-PCR protocol with suitable primers and probes for both target and reference amplifications. […] For exon 3 of the ß-actin gene (GenBank accession number E01094) the sense, probe, and antisense primers are 5′-[…]-3′ (SEQ ID NO. 4), 5′-6-[…]-3′ (SEQ ID NO. 5) and 5′-[…]-3′ (SEQ ID NO. 6), respectively. The primers and probes for the rRNA gene are commercially available from Applied Biosystems. […] The comparative CT method uses arithmetic formulas in which the amount of target (COXII gene) is normalized to the amount of an endogenous reference (the B-actin or rRNA gene) and is relative to a calibrator (a control with no drug at day 7). The arithmetic formula for this approach is given by 2-ΔΔCT, where ΔΔCT is (CT for average target test sample−CT for target control)−(CT for average reference test−CT for reference control) (see Johnson M R, K Wang, J B Smith, M J Heslin, R B Diasio. Quantitation of dihydropyrimidine dehydrogenase expression by real-time reverse transcription polymerase chain reaction. Anal. Biochem. 2000; 278:175-184). A decrease in mitochondrial DNA content in cells grown in the presence of drug indicated mitochondrial toxicity."}, "[5]": {"assay": "Assay for bone marrow cytotoxicity", "assay_type": "cell-based, human", "settings": "human, primary bone marrow mononuclear cells; organization LOBP; read-out: Bone marrow toxicity, CC50", "experimental": "Primary human bone marrow mononuclear cells can be obtained commercially from Cambrex Bioscience (Walkersville, Md.). CFU-GM assays is carried out using a bilayer soft agar in the presence of 50 units/mL human recombinant granulocyte/macrophage colony-stimulating factor, while BFU-E assays used a […] matrix containing 1 unit/mL erythropoietin (see Sommadossi J P, Carlisle R. Toxicity of 3′-azido-3′-deoxythymidine and 9-(1,3-dihydroxy-2-propoxymethyl) guanine for normal human hepatopoietic progenitor cells in vitro. Antimicrob. Agents Chemother. 1987; 31: 452-454; Sommadossi, J P, Schinazi, R F, Chu, C K, and Xie, M Y. Comparison of cytotoxicity of the (−) and (+) enantiomer of 2′,3′-dideoxy-3′-thiacytidine in normal human bone marrow progenitor cells. Biochem. Pharmacol. 1992; 44:1921-1925). Each experiment can be performed in duplicate in cells from three different donors. AZT is used as a positive control. […] Statistical analysis can be performed with Student's t test for independent non-paired samples."}, "HepG2 cells": {"tested_on": "HepG2 cells", "assay": "Lactic acid production in HepG2 cells", "assay_type": "cell-based, human", "settings": "14-day assay", "experimental": "To measure the effects of the compounds on lactic acid production, HepG2 cells from a stock culture were diluted and plated in 12-well culture plates at 2.5×10^4 cells per well. […] […] The culture medium was then filtered, and the lactic acid content in the medium was determined using a colorimetric lactic acid assay (Sigma-Aldrich). Since lactic acid product can be considered a marker for impaired mitochondrial function, elevated levels of lactic acid production detected in cells grown in the presence of test compounds would indicate a drug-induced cytotoxic effect."}, "Huh-7 cells": {"tested_on": "Huh-7 cells", "assay": "Cellular pharmacology in Huh7 cells (intracellular metabolites)", "settings": "Huh-7 cells, 50 μM, 4 hr", "experimental": "Ice-cold 70% methanol was used as the extraction solvent. ddATP (10 nM) was used as the internal standard."}, "[6]": {"tested_on": "mitochondrial DNA (COXII gene) in HepG2 cells", "assay": "Mitochondrial DNA level in HepG2 cells (real-time PCR)", "experimental": "as §2, with “The” for “The comparative CT method uses arithmetic formulas in which the amount of target (COXII gene) is normalized to the amount of an endogenous reference (the B-actin or rRNA gene) and is relative to a calibrator (a control with no drug at day 7). The”"}, "[7]": {"settings": "Homo sapiens, HepG2, read-out: % inhibition MitDNA"}}, "note": "Like-named read-outs stand apart in the source and are kept apart here.", "data": [{"smiles": "C[C@@]1(O)[C@H](O)[C@@H](COP(=O)(O)OP(=O)(O)OP(=O)(O)O)O[C@H]1n1ccc(=O)[nH]c1=O", "note": "[2′-Me-UTP]", "values": [{"measurement": "EC50", "setting": "[1]", "result": 1800, "unit": "nM"}]}, {"smiles": "O=c1ccn([C@@H]2O[C@H](CO)[C@@H](O)[C@@]2(F)Br)c(=O)[nH]1", "note": "[Compound 7, 2′-Deoxy-2′-Bromo-2′-Fluoro Uridine]", "values": [{"measurement": "CC50 at 5 days", "setting": "[2]", "result": "> 10", "unit": "µM"}, {"measurement": "EC90", "setting": "[3]", "result": "> 10", "unit": "µM"}, {"measurement": "inhibition at 10 µM", "setting": "[4]; 10 μM, read-out: % inhibition nDNA", "result": 4.4, "unit": "%"}, {"measurement": "inhibition at 50 µM", "setting": "[4]; 50 μM, read-out: % inhibition nDNA", "result": "< 1", "unit": "%"}, {"measurement": "IC50", "setting": "[4]; read-out: IC50 nDNA", "result": "> 50", "unit": "µM"}, {"measurement": "CC50", "setting": "[5]", "result": "> 100", "unit": "µM"}, {"measurement": "Lactic acid Production (% of control)", "setting": "HepG2 cells; 10 μM", "result": "85.0 ± 16.3 % of control"}, {"measurement": "Lactic acid Production (% of control)", "setting": "HepG2 cells; 50 μM", "result": "69.0 ± 13.5 % of control"}, {"measurement": "intracellular 7-DP", "setting": "Huh-7 cells", "result": "BLOQ"}, {"measurement": "intracellular 7-MP", "setting": "Huh-7 cells", "result": "BLOQ"}, {"measurement": "intracellular 7-TP", "setting": "Huh-7 cells", "result": "BLOQ"}, {"measurement": "intracellular 9", "setting": "Huh-7 cells", "result": "BLOQ"}, {"measurement": "Summary (mitochondrial toxicity)", "setting": "[6]", "result": "not toxic"}, {"measurement": "inhibition at 10 µM", "setting": "[6]; [7]", "result": "< 1", "unit": "%"}, {"measurement": "inhibition at 50 µM", "setting": "[6]; [7]", "result": 13.5, "unit": "%"}, {"measurement": "IC50", "setting": "[6]; Homo sapiens, HepG2, read-out: IC50 MitDNA", "result": "> 50", "unit": "µM"}, {"measurement": "Summary (mitochondrial toxicity)", "setting": "[6]; human, 14 days", "result": "non-toxic up to 10 μM"}, {"measurement": "MitDNA Content (% of control)", "setting": "[6]; human, 14 days, 10 μM", "result": "117 (98-138) % of control"}, {"measurement": "MitDNA Content (% of control)", "setting": "[6]; human, 14 days, 50 μM", "result": "72 (63-83) % of control"}]}]}
